According to patent US12616203B2, “Use of 3-isoxazolidinones compounds as selective herbicides” (FMC Corporation, priority 2014, dated 2026):
Like-named read-outs stand apart in the source and are kept apart here.

What was measured:
weeds [1] = assay: Ex16 PRE greenhouse; assay type: in vivo; settings: weed and rate in the words
Source text: To determine PRE efficacy, five levels of 2,4 DC (36.7% CS) 0, 125, 170, 210, or 250 g ai/ha and five levels of pyroxasulfone (KIH485-85WG) 0, 50, 65, 80, or 95 g ai/ha were applied either alone or as tank-mix. Additional treatments consisted of premix of pyroxasulfone plus fluthiacet-methyl (Anthem™ 23.3%) at 169.9 g ai/ha, S-metolachlor (Dual II Magnum, 82.4%) at 1388 g, and tank-mix of mesotrione (Callisto, 40%) at 123 g plus S-metolachlor at 1252 g. […] Treatments were applied before the emergence of black nightshade, giant foxtail, green foxtail, yellow foxtail, large crabgrass, kochia, redroot pigweed, common ragweed, and barnyardgrass.
Flats were watered and fertilized routinely after treatment application. Each treatment was replicated three times.

weeds [2] = assay: Ex22 PRE greenhouse; assay type: in vivo; settings: 28 DAT, weed and rate in the words
Source text: 2,4 DC (36.7% CS) was applied PRE at 0, 125, 170, 210, or 250 g ai/ha alone or as a tank-mix with S-metolachlor (Dual II Magnum®, 82.4%) at 0, 267, 534, 801, or 1070 g ai/ha. Pyroxasulfone plus fluthiacet-methyl (Anthem™, 23.3%) applied at 169.9 g ai/ha, and the tank-mix of mesotrione (Callisto®, 40%) at 123 g plus S-metolachlor (Dual II Magnum®, 82.4%) at 1252 g were included as a standards for comparison.
Thereafter flats were watered and fertilized routinely. Each treatment was replicated three times.

weeds [3] = assay: Ex21 PRE greenhouse; assay type: in vivo; settings: 28 DAT, weed and rate in the words
Source text: 2,4 DC (36.7% CS) was applied PRE at 0, 125, 170, 210, or 250 g ai/ha alone or as a tank-mix with S-metolachlor (Dual II Magnum®, 82.4%) at 0, 267, 534, 801, or 1070 g ai/ha. Pyroxasulfone plus fluthiacet-methyl (Anthem™, 23.3%) applied at 169.9 g ai/ha, and the tank-mix of mesotrione (Callisto®, 40%) at 123 g plus S-metolachlor (Dual II Magnum®, 82.4%) at 1252 g were included as standards for comparison. […] Thereafter flats were watered and fertilized routinely. Each treatment was replicated three times.

weeds; Corn = assay: Ex25 PRE greenhouse; assay type: in vivo; settings: rate in the words
Source text: The crop tested in this study was Corn.
2,4 DC-21 (36.7% CS) was applied PRE at 0, 125, 170, 210, or 250 g ai/ha alone or as a tank-mix with pyroxasulfone (KIH-485, 85% WP) at 0, 50, 65, 80, or 95 g ai/ha. Pyroxasulfone plus fluthiacet-methyl (Anthem™, 23.3%) applied at 169.9 g ai/ha, s-metolachlor (Dual II Magnum®, 82.4%) applied at 1389 g, and the tank-mix of mesotrione (Callisto®, 40%) at 123 g plus s-metolachlor (Dual II Magnum®, 82.4%) at 1252 g were included as a standards for comparison. […] Thereafter flats were watered and fertilized routinely.

Pennsylvania smartweed = assay: Ex15 PRE 2,4-DC + S-metolachlor, % control 28 DAT, Colby; assay type: in vivo, Polygonum pensylvanicum
Source text: (§1) The weeds tested in this study were redroot pigweed (Amaranthus retroflexus, AMARE), Jimsonweed (Datura stramonium, DATST), black nightshade (Solanum nigrum, SOLNI), large crabgrass (Digitaria sanguinalis, DIGSA), Pennsylvania smartweed (Polygonum pensylvanicum, POLPY), horseweed (Conyza canadensis, ERICA), wild buckwheat (Polygonum convolvulus, POLCO). The crop tested was Corn (var. Viking).
(§2) To determine PRE efficacy and corn injury, five rates of each 2,4 DC (36.7% CS) and S-metolachlor (Dual II Magnum®, 82.4%) were applied either alone or as tank-mix. 2,4 DC was applied at 0, 125, 170, 210, or 250 g ai/ha and S-metolachlor was applied at 0, 267, 534, 801, or 1070 g ai/ha. Additional treatments included application of premix of pyroxasulfone plus fluthiacet-methyl (Anthem™ 23.3%) at 169.9 g ai/ha and tank-mix of mesotrione (Callisto®, 40%) at 123 g plus S-metolachlor at 1252 g. Treatments were applied just after the planting of large crabgrass, Jimsonweed, black nightshade, redroot pigweed, Pennsylvania smartweed, horseweed, wild buckwheat, and corn.
(§3) Flats were watered and fertilized routinely after treatment application. Each treatment was replicated three times. […] Corn injury was rated for bleaching and stunting.

Black nightshade = assay: as above; assay type: in vivo, Solanum nigrum
Source text: as §1, §2, §3

weeds [4] = assay: Ex10 PRE greenhouse; assay type: in vivo; settings: 28 DAT, weed and rate in the words
Source text: Treatments 1-12 of 2,4-DC and aclonifen tank-mix combinations follow same rates listed above. […] Sulfentrazone (Spartan 4F® 39.6%) at 280 g ai/ha, pendimethalin (Prowl 3.3®EC, 37.4%) at 784 g ai/ha, or S-metolachlor (Dual II Magnum® 82.4%) at 1084 g ai/ha were applied as commercial standards. Treatments were replicated 3 times and flats were watered after planting but before the treatment and lightly watered after treatment application. Thereafter flats were watered and fertilized routinely. […] Shepherd's-purse was rated at 21 and 28 DAT only, due to delayed emergence.

Wild buckwheat [5] = assay: Ex15 PRE 2,4-DC + S-metolachlor, % control 28 DAT, Colby; assay type: in vivo, Polygonum convolvulus
Source text: as §1, §2, §3

jimsonweed = assay: as above; assay type: in vivo, Datura stramonium
Source text: as §1, §2, §3

[6] = system: weeds; Corn (var. Viking); assay: Ex15 PRE greenhouse; assay type: in vivo; settings: rate in the words
Source text: as §1, §2, §3

Italian ryegrass = assay: Ex36 POST 2,4-DC + metsulfuron-methyl, % control 28 DAT, Colby; assay type: in vivo, Lolium perenne L. ssp. multiflorum
Source text: Crops screened were wheat and barley.

weeds; barley and wheat = assay: Ex40 POST greenhouse; assay type: in vivo; settings: rate in the words
Experimental: (§4) Treatments were applied to barley and wheat crops.
(§5) Non-ionic surfactant (NIS) was added to all treatments at 0.5% v/v. All plant species were direct seeded into 3″ plastic pots using metro-mix as growth media. At treatment common lambsquarters was 1.75″, common chickweed was 2″, wild mustard was 2.25″, wild oat was 5.5″, wild buckwheat was 2-5″, Italian ryegrass was 2-3″, wheat was 5.5″ and barley was 4.5″ in height. Plants were watered well before application and not watered 24 h after application. Plants were watered and fertilized routinely after treatment application. Each treatment was replicated four times. Treated flats were placed in randomized block design in the greenhouse.

Barley [7] = assay: Ex40 POST 2,4-DC + metsulfuron-methyl, crop injury 7 DAT; assay type: in vivo; settings: POST
Experimental: as §4, §5

wheat [8] = assay: as above; assay type: in vivo; settings: POST
Experimental: as §4, §5

Barley [9] = assay type: in vivo; settings: 14 DAT, POST
Experimental: (§6) Treatments were applied to wheat and barley crops.
(§7) Nonionic surfactant was added at 0.5% v/v in all treatments. Treatments were applied to wheat (5.5″), barley (5″), wild oat (5.5″), common chickweed (2″), wild buckwheat (3″), and common lambsquarters (2″). All plant species were direct seeded into 3″ plastic pots using metro-mix as growth media and pots were watered well before application and watered 24 h after application. Plants were watered and fertilized routinely after treatment application. Each treatment was replicated four times.

wheat [10] = assay type: in vivo; settings: 14 DAT, POST
Experimental: as §6, §7

weeds; Wheat and Barley = assay: Ex41 POST greenhouse; assay type: in vivo; settings: rate in the words
Experimental: as §6, §7

Wild buckwheat [11] = assay: Ex34 PRE 2,4-DC + napropamide, % control, Colby; assay type: in vivo, Polygonum convolvulus; settings: 28 DAT
Source text: (§8) Thereafter flats were watered and fertilized routinely.

weeds; canola = assay: Ex34 PRE greenhouse; assay type: in vivo; settings: rate in the words
Source text: as §8

Littleseed canarygrass = assay: Ex34 PRE 2,4-DC + napropamide, % control, Colby; assay type: in vivo, Phalaris minor; settings: 28 DAT
Source text: as §8

weeds [12] = assay: Ex18 PRE greenhouse; assay type: in vivo; settings: weed and rate in the words
Source text: Additional treatments included application of metazachlor (Butisan®, 43.1%) at 750 g ai/ha, napropamide (Devrinol DF®, 50%) at 1260 g ai/ha, and dimethachlor (Teridox®, 48%) at 1000 g ai/ha. […] Treatments were applied just after the seeding of annual bluegrass, cheat, wild oat, quackgrass, field violet, blackgrass, littleseed canarygrass, silky windgrass, yellow foxtail, and goosegrass. […] Flats were watered and fertilized routinely after treatment application. Each treatment was replicated three times.

Annual bluegrass = assay: Ex34 PRE 2,4-DC + napropamide, % control, Colby; assay type: in vivo, Poa annua; settings: 28 DAT
Source text: as §8

Common lambsquarters = assay: Ex34 PRE 2,4-DC + napropamide, % control, Colby; assay type: in vivo, Chenopodium album; settings: 28 DAT
Source text: as §8

Blackgrass = assay: Ex34 PRE 2,4-DC + napropamide, % control, Colby; assay type: in vivo, Alopecurus myosuroides; settings: 28 DAT
Source text: as §8

[13] = S-metolachlor alone 267 g ai/ha
[14] = S-metolachlor alone 534 g ai/ha
[15] = S-metolachlor alone 801 g ai/ha
[16] = S-metolachlor alone 1070 g ai/ha
[17] = thifensulfuron-methyl 50 g ai/ha
[18] = thifensulfuron-methyl 75 g ai/ha
[19] = thifensulfuron-methyl 100 g ai/ha

CCc1cccc(C)c1N(C(=O)CCl)[C@@H](C)COC [S-metolachlor, reference compound]
weed control in words (weeds [1]): controlled black nightshade, redroot pigweed, barnyardgrass, large crabgrass, and all three foxtail species
weed control in words (weeds [2]): applied alone controlled Johnsongrass and goosegrass at all rates and controlled Benghal dayflower, prickly sida and common lambsquarters at 801 g
weed control in words (weeds [3]): applied alone controlled yellow foxtail, green foxtail, and barnyardgrass at all rates, quackgrass or common chickweed at ≥534 g, and common lambsquarters at ≥801 g
weed control / crop safety in words (weeds; Corn): controlled only black nightshade and also caused severe stunting to corn
Y (Pennsylvania smartweed; [13]): 75%
Y (Pennsylvania smartweed; [14]): 95%
Y (Pennsylvania smartweed; [15]): 100%
Y (Pennsylvania smartweed; [16]): 100%
Y (Black nightshade; [13]): 46%
Y (Black nightshade; [14]): 85%
Y (Black nightshade; [15]): 90%
Y (Black nightshade; [16]): 95%
weed control in words (weeds [4]): at 1064 g controlled only two weeds
Y (Wild buckwheat [5]; [13]): 33%
Y (Wild buckwheat [5]; [14]): 65%
Y (Wild buckwheat [5]; [15]): 82%
Y (Wild buckwheat [5]; [16]): 85%
Y (jimsonweed; [13]): 17%
Y (jimsonweed; [14]): 17%
Y (jimsonweed; [15]): 23%
Y (jimsonweed; [16]): 28%
weed control / crop safety in words [6]: alone gave control of all species at different rates except Jimsonweed

COC(=O)c1ccccc1S(=O)(=O)NC(=O)Nc1nc(C)nc(OC)n1 [Metsulfuron-methyl, metsulfuron-methyl, reference compound]
Y (Italian ryegrass; metsulfuron-methyl alone 6 g ai/ha): 6%
Y (Italian ryegrass; metsulfuron-methyl alone 9 g ai/ha): 18%
Y (Italian ryegrass; metsulfuron-methyl alone 12 g ai/ha): 16%
weed control / crop safety in words (weeds; barley and wheat): alone controlled wild buckwheat, common chickweed, wild mustard, and common lambsquarters at all rates and was safe on both crops at all rates
Y (% crop injury, metsulfuron-methyl alone) (Barley [7]; metsulfuron-methyl 2 g ai/ha): 5%
Y (% crop injury, metsulfuron-methyl alone) (Barley [7]; metsulfuron-methyl 3 g ai/ha): 7%
Y (% crop injury, metsulfuron-methyl alone) (Barley [7]; metsulfuron-methyl 4 g ai/ha): 9%
Y (% crop injury, metsulfuron-methyl alone) (wheat [8]; metsulfuron-methyl 2 g ai/ha): 1%
Y (% crop injury, metsulfuron-methyl alone) (wheat [8]; metsulfuron-methyl 3 g ai/ha): 0%
Y (% crop injury, metsulfuron-methyl alone) (wheat [8]; metsulfuron-methyl 4 g ai/ha): 2%

COC(=O)c1sccc1S(=O)(=O)NC(=O)Nc1nc(C)nc(OC)n1 [Thifensulfuron-methyl, thifensulfuron-methyl, reference compound]
% crop injury for Thifensulfuron-M alone (Barley [9]; [17]): 2%
% crop injury for Thifensulfuron-M alone (Barley [9]; [18]): 2%
% crop injury for Thifensulfuron-M alone (Barley [9]; [19]): 2%
% crop injury for Thifensulfuron-M alone (wheat [10]; [17]): 0%
% crop injury for Thifensulfuron-M alone (wheat [10]; [18]): 0%
% crop injury for Thifensulfuron-M alone (wheat [10]; [19]): 1%
weed control / crop safety in words (weeds; Wheat and Barley): alone controlled all weeds except wild oat, and was safe on both crops

CCN(CC)C(=O)C(C)Oc1cccc2ccccc12 (centres unmarked) [napropamide, reference compound]
Y (Wild buckwheat [11]; Napropamide alone 315 g ai/ha): 23%
Y (Wild buckwheat [11]; Napropamide alone 630 g ai/ha): 23%
Y (Wild buckwheat [11]; Napropamide alone 1260 g ai/ha): 38%
weed control / crop safety in words (weeds; canola): alone at 630 g controlled littleseed canarygrass, at 1260 g controlled common lambsquarters, annual bluegrass and Italian ryegrass and was safe on canola at all rates
Y (Littleseed canarygrass; Napropamide alone 315 g ai/ha): 50%
Y (Littleseed canarygrass; Napropamide alone 630 g ai/ha): 87%
Y (Littleseed canarygrass; Napropamide alone 1260 g ai/ha): 100%
weed control in words (weeds [12]): controlled all weeds except blackgrass
Y (Annual bluegrass; Napropamide alone 315 g ai/ha): 1%
Y (Annual bluegrass; Napropamide alone 630 g ai/ha): 77%
Y (Annual bluegrass; Napropamide alone 1260 g ai/ha): 92%
Y (Common lambsquarters; Napropamide alone 315 g ai/ha): 50%
Y (Common lambsquarters; Napropamide alone 630 g ai/ha): 73%
Y (Common lambsquarters; Napropamide alone 1260 g ai/ha): 91%
Y (Blackgrass; Napropamide alone 315 g ai/ha): 5%
Y (Blackgrass; Napropamide alone 630 g ai/ha): 7%
Y (Blackgrass; Napropamide alone 1260 g ai/ha): 15%
